We go through 37 molecules from patent US20240287022A1 (Merck Sharp & Dohme LLC, priority 2021, published 2024).

A word on the EC50: it is the concentration giving half of the maximal effect.

The target in this assay is recombinant IL4I1 (Homo sapiens (Human), UniProt Q96RQ9). Briefly: IL4I1 Enzymatic Assay (Amplex Red/HRP coupled H2O2 detection). The assay is classed as biochemical. The settings on record: 1 nM IL4I1, 1 mM each Phe/Tyr/Trp, four-hour pre-incubation, 120 minutes reaction, top compound concentration of 10000 nM. How it is done: Interleukin 4 inducible protein 1 (IL4I1) is an L-amino oxidase that catalyzes the oxidation of aromatic residues (Phe, Trp and Tyr): L-amino acid+H2O+O2→2-oxo acid+NH3+H2O2. Equal molar of H2O2 and the corresponding alpha-ketoacid are produced when IL4I1 and substrate are added. In this assay, the hydrogen peroxide generated by IL4I1 are then detected through a coupled reaction with Amplex Red (10-acetyl-3,7-dihydroxyphenoxazine) and […] (HRP) to produce Resorufin product that could be detected in the form of fluorescence signals. The assessment of the inhibitory effect of small molecules (EC50) on IL4I1 is measured by the effectiveness of the compounds to inhibit the production of H2O2.
Chain of recombinant IL4I1 (Q96RQ9 22-567): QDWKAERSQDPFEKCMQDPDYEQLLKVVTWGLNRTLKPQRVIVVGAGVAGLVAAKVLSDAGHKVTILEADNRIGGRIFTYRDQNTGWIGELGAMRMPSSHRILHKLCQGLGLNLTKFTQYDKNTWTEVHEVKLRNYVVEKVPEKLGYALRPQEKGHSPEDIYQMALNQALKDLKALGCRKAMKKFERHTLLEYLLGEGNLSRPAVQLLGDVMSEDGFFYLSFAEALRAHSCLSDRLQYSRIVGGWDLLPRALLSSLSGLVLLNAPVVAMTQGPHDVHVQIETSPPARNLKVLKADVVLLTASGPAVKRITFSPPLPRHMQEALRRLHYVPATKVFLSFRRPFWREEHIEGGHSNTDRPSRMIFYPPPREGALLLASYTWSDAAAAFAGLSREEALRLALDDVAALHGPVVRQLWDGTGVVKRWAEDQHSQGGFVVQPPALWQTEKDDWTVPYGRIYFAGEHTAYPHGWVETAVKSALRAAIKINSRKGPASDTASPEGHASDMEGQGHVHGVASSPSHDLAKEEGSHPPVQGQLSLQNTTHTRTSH
Using this assay, the potency (EC50) of each compound was determined from a ten-point (1:3 serial dilution; top compound concentration of 10000 nM) titration curve using the following outlined procedure. To each well of a black flat-bottom Greiner (Cat #781076) 384 well-plate, 25 nL of compound (0.1% DMSO in final assay volume of 25 μL) was dispensed, followed by the addition of 12.5 μL of 1× assay buffer (50 mM Hepes 7.0 and 0.005% Tween20 (Sigma, Cat #P8341; low peroxide grade)) containing 2 nM of recombinant IL4I1 (R&D Systems, Cat #5684-AO-020). Plates were placed in an ambient temperature humidified chamber for a four-hour pre-incubation with compound. Subsequently, each reaction was initiated by the addition of 12.5 μL 1× assay buffer containing 2 mM of each aromatic amino acids (Phe/Tyr/Trp), 0.1 mM Amplex Red and 2 U/mL of HRP. The final reaction in each well of 25 μL consists of 1 nM of IL4I1, 1 mM of each residues (Phe, Tyr and Trp), 0.05 mM Amplex Red and 1 U/mL of HRP. It should be noted that the concentrations of Amplex Red and HRP used here are in excess such that the conversion of H2O2 to Resorufin product occurs instantaneously and non-rate limiting. Reactions were allowed to proceed for 120 minutes followed by fluorescence readout on a Spectramax with the following set parameters: 544 nm excitation/590 nm emission, 570 nm cutoff (EnVision is an alternative reader). Dose-response curves were generated by plotting percent effect (% product conversion; Y-axis) vs. Log10 compound concentrations (X-axis). EC50 values were calculated using a non-linear regression, four-parameters sigmoidal dose-response model.
As to `O=c1[nH]c2ccccc2cc1Cc1ccc2nccnc2c1` [Example 157, 3-(quinoxalin-6-ylmethyl)quinolin-2(1H)-one], the EC50 stood at 6.2 nM. Next, `O=C1COc2ccc(Cc3cc4ccccc4[nH]c3=O)c(F)c2N1` [Example 171, 5-Fluoro-6-((2-oxo-1,2-dihydroquinolin-3-yl)methyl)-2H-benzo[b][1,4]oxazin-3(4H)-one]: 7 nM. Take `N#CC1(c2ccc(Cc3cc4ccccc4[nH]c3=O)cc2)CC(O)C1` (single isomer, unassigned) [Example 101A, 3-hydroxy-1-(4-((2-oxo-1,2-dihydroquinolin-3-yl)methyl)phenyl)cyclobutane-1-carbonitrile]: the EC50 came to 2.6 nM. Regarding `CC(C)(O)Cc1ccc(Cc2cc3ccccc3[nH]c2=O)cc1` [Example 179, 3-(4-(2-Hydroxy-2-methylpropyl)benzyl)quinolin-2(1H)-one], the EC50 stood at 4.9 nM. The same measure for `CC(C)(C)n1cc(Cc2cc3ccccc3[nH]c2=O)cn1` [Example 110, 3-((1-(tert-butyl)-1H-pyrazol-4-yl)methyl)quinolin-2(1H)-one]: 11.5 nM. Next, `O=c1[nH]c2ccccc2cc1Cc1nnc(Cc2ccccc2F)o1` [Example 8, 3-((5-(2-fluorobenzyl)-1,3,4-oxadiazol-2-yl)methyl)quinolin-2(1H)-one]: 12.8 nM. The same measure for `O=C1NC(=O)c2cc(Cc3cc4ccccc4[nH]c3=O)ccc21` [Example 185, 5-((2-oxo-1,2-dihydroquinolin-3-yl)methyl)isoindoline-1,3-dione]: 9.1 nM; for `Cn1c(=O)c(Cc2ccc(C(C)(C)O)cc2)cc2ccccc21` [Example 143, 3-(4-(2-hydroxypropan-2-yl)benzyl)-1-methylquinolin-2(1H)-one]: 2.6 nM.

With `N#CC1CC(Oc2ccc(Cc3cc4ccccc4[nH]c3=O)cc2)C1` (stereo not shown) [Example 146, 3-(4-((2-oxo-1,2-dihydroquinolin-3-yl)methyl)phenoxy)cyclobutane-1-carbonitrile], the concentration for a half-maximal effect (EC50) came to 1.7 nM. The same measure for `N#CC1(c2ccc(Cc3cc4ccccc4[nH]c3=O)cc2)COC1` [Example 147, 3-(4-((2-oxo-1,2-dihydroquinolin-3-yl)methyl)phenyl)oxetane-3-carbonitrile]: 2.3 nM. As to `CC1(c2ccc(Cc3cc4ccccc4[nH]c3=O)cc2)CCC(=O)N1` (single isomer, unassigned) [Example 183B, (R or S)-3-(4-(2-methyl-5-oxopyrrolidin-2-yl)benzyl)quinolin-2(1H)-one], the EC50 amounted to 11.1 nM. Next, `CC(=O)NCc1ccc(Cc2cc3ccccc3[nH]c2=O)c(F)c1` [Example 167, N-(3-fluoro-4-((2-oxo-1,2-dihydroquinolin-3-yl)methyl)benzyl)acetamide]: 4.9 nM; `Cc1c(Cc2ccccc2)c(=O)[nH]c2ccccc12` [Example 164, 3-Benzyl-4-methylquinolin-2(1H)-one]: 10000 nM. Take `O=c1[nH]c2ccccc2cc1Cc1ccc(C2CNC2)cc1` [Example 63, 3-(4-(azetidin-3-yl)benzyl)quinolin-2(1H)-one]: the EC50 was found to be 9.7 nM. The same measure for `O=c1[nH]c2ccccc2cc1Cc1nnc(-c2cc(C(F)(F)F)[nH]n2)o1` [Example 28, 3-((5-(5-(trifluoromethyl)-1H-pyrazol-3-yl)-1,3,4-oxadiazol-2-yl)methyl)quinolin-2(1H)-one]: 125 nM. In the case of `CC(=O)NCc1ccc(Cc2cc3ccccc3[nH]c2=O)cc1C` [Example 168, N-(2-methyl-4-((2-oxo-1,2-dihydroquinolin-3-yl)methyl)benzyl)acetamide], the EC50 is 3.4 nM.

For `CC(C)(O)c1ccc(Cc2cc3ccccc3[nH]c2=O)cc1Cl` [Example 80, 3-(3-chloro-4-(2-hydroxypropan-2-yl)benzyl)quinolin-2(1H)-one], the EC50 came out at 3.3 nM. On to `CC(O)C(C#N)c1ccc(Cc2cc3ccccc3[nH]c2=O)cc1` (single isomer, unassigned) [Example 102B, 3-hydroxy-2-(4-((2-oxo-1,2-dihydroquinolin-3-yl)methyl)phenyl)butanenitrile], for which the 50% effective concentration (EC50) was determined as 7.8 nM. The same measure for `O=c1[nH]c2ccccc2cc1Cc1nnc(-c2cn3ccsc3n2)o1` [Example 13, 3-((5-(imidazo[2,1-b]thiazol-6-yl)-1,3,4-oxadiazol-2-yl)methyl)quinolin-2(1H)-one]: 5.7 nM; for `N#Cc1c[nH]c2ccc(Cc3cc4ccccc4[nH]c3=O)nc12` [Example 96, 5-((2-oxo-1,2-dihydroquinolin-3-yl)methyl)-1H-pyrrolo[3,2-b]pyridine-3-carbonitrile]: 2 nM. As for `CCS(=O)(=O)Nc1ccc(Cc2cc3ccccc3[nH]c2=O)cn1` [Example 47, N-(5-((2-oxo-1,2-dihydroquinolin-3-yl)methyl)pyridin-2-yl)ethanesulfonamide], the EC50 is 10.8 nM.

For the molecule `CC1CC(=O)NC1c1ccc(Cc2cc3ccccc3[nH]c2=O)cc1` (stereo not shown) [Example 45, 3-(4-(3-methyl-5-oxopyrrolidin-2-yl)benzyl)quinolin-2(1H)-one], the EC50 came out at 6.7 nM. For the molecule `CC(C)(O)c1ccc2[nH]c(=O)c(Cc3ccccc3)cc2c1` [Example 173, 3-Benzyl-6-(2-hydroxypropan-2-yl)quinolin-2(1H)-one], the EC50 stood at 6840 nM. In the case of `O=c1[nH]c2ccccc2cc1Cc1nnc(C2CC3(CCC3)C2)o1` [Example 21, 3-((5-(spiro[3.3]heptan-2-yl)-1,3,4-oxadiazol-2-yl)methyl)quinolin-2(1H)-one], the EC50 worked out at 177 nM. The same measure for `N#Cc1ccc2[nH]c(=O)c(Cc3ccccc3)cc2c1` [Example 174, 3-Benzyl-2-oxo-1,2-dihydroquinoline-6-carbonitrile]: 10000 nM; for `O=c1[nH]c2ccccc2cc1Cc1nnc(-c2ncn3ccccc23)o1` [Example 16, 3-((5-(imidazo[1,5-a]pyridin-1-yl)-1,3,4-oxadiazol-2-yl)methyl)quinolin-2(1H)-one]: 10.2 nM; for `O=c1[nH]c2ccccc2cc1Cc1coc2ccccc12` [Example 136, 3-(benzofuran-3-ylmethyl)quinolin-2(1H)-one]: 0.5 nM.

With `O=C1N(c2ccc(Cc3cc4cnccc4[nH]c3=O)cc2)CCC1(F)F` [compound 62, 3-(4-(3,3-difluoro-2-oxopyrrolidin-1-yl)benzyl)-1,6-naphthyridin-2(1H)-one], the EC50 worked out at 6 nM.

For the molecule `O=c1[nH]c2ccccc2cc1Cc1nnc(-c2cc3c(s2)CCC3)o1` [Example 39, 3-((5-(5,6-dihydro-4H-cyclopenta[b]thiophen-2-yl)-1,3,4-oxadiazol-2-yl)methyl)quinolin-2(1H)-one], the EC50 was 10.2 nM. Next, `Cc1nc(C)c(Cc2cc3ccccc3[nH]c2=O)s1` [Example 134, 3-((2,4-dimethylthiazol-5-yl)methyl)quinolin-2(1H)-one]: 5.1 nM; `NS(=O)(=O)c1cccc(Cc2cc3ccccc3[nH]c2=O)c1` [Example 141, 3-((2-oxo-1,2-dihydroquinolin-3-yl)methyl)benzenesulfonamide]: 20.2 nM. Next, `CC(C)(C#N)c1ccc(Cc2cc3cnccc3[nH]c2=O)cc1` [Example 100, 2-methyl-2-(4-((2-oxo-1,2-dihydro-1,6-naphthyridin-3-yl)methyl)phenyl)propanenitrile]: 7.3 nM; `O=c1[nH]c2ccccc2cc1Cc1nnc(-c2ncnc3c2CCC3)o1` [Example 40, 3-((5-(6,7-dihydro-5H-cyclopenta[d]pyrimidin-4-yl)-1,3,4-oxadiazol-2-yl)methyl)quinolin-2(1H)-one]: 23.4 nM. The same measure for `O=c1[nH]c2ccccc2cc1Cc1ccc([C@@H]2CCNC2)cc1` [65A]: 7.1 nM; for `O=c1[nH]c2ccccc2cc1Cc1cnc(N2CCCCC2)s1` [Example 137, 3-((2-(piperidin-1-yl)thiazol-5-yl)methyl)quinolin-2(1H)-one]: 4.5 nM. For `Cc1nn(C)cc1-c1nnc(Cc2cc3ccccc3[nH]c2=O)o1` [Example 36, 3-((5-(1,3-dimethyl-1H-pyrazol-4-yl)-1,3,4-oxadiazol-2-yl)methyl)quinolin-2(1H)-one], the EC50 turned out to be 30.7 nM. With `CS(=N)(=O)Cc1ccc(Cc2cc3ccccc3[nH]c2=O)cc1` (single isomer, unassigned) [Example 186, 3-(4-(((R or S)-methylsulfonimidoyl)methyl)benzyl)quinolin-2(1H)-one], the EC50 was found to be 28.2 nM.
